Source: patent publication US10065990B2, “Cyclic peptide compound, and preparation method, pharmaceutical composition and use thereof” (HANGZHOU GUANYU BIO-MEDICAL CO., LTD, priority 2013, dated 2018)
Like-named read-outs stand apart in the source and are kept apart here.

Tests used:
[1] = tested on: DU145 (human prostate cancer cells); test: MTT cancer cell growth inhibition; assay type: cell-based; conditions: Homo sapiens, DU-145, 72 h, MTT, 72 hours incubation, read-out: GI50 Du1
Text: (§1) MTT assay principle is yellow MTT can penetrate membrane into the cell, succinic dehydrogenase of the mitochondria in living cells can make exogenous MTT reduction of insoluble in water of blue-violet acicular formazan for crystallization and deposition in the cell, crystallization can be dissolved dimethyl sulfoxide (DMSO) solution, detected its absorbance at 490 nm/570 nm wavelength by enzyme-linked immunosorbent assay, which can reflect the number of cells.
(§2) Using DMEM+10% FBS culture medium or using 1640+10% FBS culture, respectively.
(§3) a) Cells were seeded in 96-well plates with the inoculation of 1500/well, 190 μl/hole, 37° C., 5% of CO2 incubator overnight;
(§4) b) The next day each well was added 10 μl of different drugs. The final concentration of drug was 10^−5˜10^−10M, three parallel holes; 37° C., 5% CO2 culture incubator for 72 hours incubation;
(§5) c) Per well was added 20 μl 5 mg/ml of MTT, 37° C., 5% CO2 culture incubator for 4 hours incubation;
(§6) d) The supernatant was discarded. Each well was added 100 μl of DMSO and oscillation;
(§7) e) 570 nm readings. Calculate cell viability. GI50 calculation based on the results.

[2] = tested on: KBM5-T315I (human chronic myelogenous leukemia); test: MTT cancer cell growth inhibition; assay type: cell-based; conditions: Homo sapiens, 72 h, MTT, 72 hours incubation, KBM5-T315I cells; read-out: GI50 KBM5-T315I
Text: as §1, §2, §3, §4, §5, §6, §7

[3] = tested on: KBM-5 (human chronic myelogenous leukemia); test: MTT cancer cell growth inhibition; assay type: cell-based; conditions: Homo sapiens, KBM5, 72 h, MTT, 72 hours incubation, KBM-5 cells; read-out: GI50 KBM-5
Text: as §1, §2, §3, §4, §5, §6, §7

[4] = tested on: A549 (human lung cancer cells); test: MTT cancer cell growth inhibition; assay type: cell-based; conditions: Homo sapiens, A549, 72 h, MTT, 72 hours incubation, read-out: GI50 A54
Text: as §1, §2, §3, §4, §5, §6, §7

[5] = tested on: MCF-7 (human breast cancer cells); test: MTT cancer cell growth inhibition; assay type: cell-based; conditions: Homo sapiens, MCF7, 72 h, 72 hours incubation, read-out: GI50 MCF
Text: as §1, §2, §3, §4, §5, §6, §7

[6] = tested on: H1975 (non-small cell lung adenocarcinoma); test: MTT cancer cell growth inhibition; assay type: cell-based; conditions: Homo sapiens, NCI-H1975, 72 h, MTT, 72 hours incubation, H1975 cells; read-out: GI50 H1975
Text: as §1, §2, §3, §4, §5, §6, §7

[7] = tested on: HCC827 (human non-small cell lung cancer cells); test: MTT cancer cell growth inhibition; assay type: cell-based; conditions: Homo sapiens, HCC827, 72 h, MTT, 72 hours incubation, HCC827 cells; read-out: GI50 HCC827
Text: as §1, §2, §3, §4, §5, §6, §7

[8] = tested on: SGC-7901 (human gastric cancer cells); test: MTT cancer cell growth inhibition; assay type: cell-based; conditions: Homo sapiens, SGC-7901, 72 h, MTT, 72 hours incubation, SGC-7901 cells; read-out: GI50 SGC-7901
Text: as §1, §2, §3, §4, §5, §6, §7

[9] = tested on: PANC-1 (Pac-1, human pancreatic cancer cells); test: MTT cancer cell growth inhibition; assay type: cell-based; conditions: Homo sapiens, PANC-1, 72 h, MTT, 72 hours incubation, read-out: GI50 PAN
Text: as §1, §2, §3, §4, §5, §6, §7

[10] = tested on: U937 (human leukemia cells); test: MTT cancer cell growth inhibition; assay type: cell-based; conditions: Homo sapiens, U-937, 72 h, MTT, 72 hours incubation, read-out: GI50 U93
Text: as §1, §2, §3, §4, §5, §6, §7

[11] = tested on: lncap (prostate cancer cells); test: MTT cancer cell growth inhibition; assay type: cell-based; conditions: Homo sapiens, LNCaP, 72 h, MTT, 72 hours incubation, read-out: GI50 lnca
Text: as §1, §2, §3, §4, §5, §6, §7

[12] = tested on: K562 (human leukemia cells); test: MTT cancer cell growth inhibition; assay type: cell-based; conditions: Homo sapiens, K562, 72 h, MTT, 72 hours incubation, K562 cells; read-out: GI50 K562
Text: as §1, §2, §3, §4, §5, §6, §7

[13] = tested on: HT1080 (human fibrosarcoma cells); test: MTT cancer cell growth inhibition; assay type: cell-based; conditions: Homo sapiens, HT-1080, 72 h, MTT, 72 hours incubation, read-out: GI50 HT1
Text: as §1, §2, §3, §4, §5, §6, §7

[14] = tested on: Bel-7402 (human hepatoma cells); test: MTT cancer cell growth inhibition; assay type: cell-based; conditions: Homo sapiens, Bel-7402, 72 h, MTT, 72 hours incubation, Bel-7402 cells; read-out: GI50 Bel-7402
Text: as §1, §2, §3, §4, §5, §6, §7

[15] = tested on: Hela (human cervical cancer cells); test: MTT cancer cell growth inhibition; assay type: cell-based; conditions: Homo sapiens, HeLa, 72 h, MTT, 72 hours incubation, read-out: GI50 Hela
Text: as §1, §2, §3, §4, §5, §6, §7

[16] = tested on: MOLT-4 (human acute lymphoblastic leukemia cells); test: MTT cancer cell growth inhibition; assay type: cell-based; conditions: Homo sapiens, MOLT-4, 72 h, MTT, 72 hours incubation, read-out: GI50 Mol
Text: as §1, §2, §3, §4, §5, §6, §7

[17] = tested on: N-87 (human gastric cancer cells); test: MTT cancer cell growth inhibition; assay type: cell-based; conditions: Homo sapiens, 72 h, MTT, 72 hours incubation, N-87 cells; read-out: GI50 N-87
Text: as §1, §2, §3, §4, §5, §6, §7

[18] = tested on: BGC-823 (human gastric cancer cells); test: MTT cancer cell growth inhibition; assay type: cell-based; conditions: Homo sapiens, BGC-823, 72 h, MTT, 72 hours incubation, read-out: GI50 BG
Text: as §1, §2, §3, §4, §5, §6, §7

[19] = tested on: MDA-MB-231 (breast cancer cells); test: MTT cancer cell growth inhibition; assay type: cell-based; conditions: Homo sapiens, MDA-MB-231, 72 h, read-out: GI50 MDA-MB-231, MTT, 72 hours incubation, MDA-MB-231 cells
Text: as §1, §2, §3, §4, §5, §6, §7

[20] = tested on: Huh-7 (human hepatoma cells); test: MTT cancer cell growth inhibition; assay type: cell-based; conditions: Homo sapiens, Huh-7, 72 h, MTT, 72 hours incubation, Huh-7 cells; read-out: GI50 Huh-7
Text: as §1, §2, §3, §4, §5, §6, §7

HDAC7 = target: T1, HDAC7 (Homo sapiens, UniProt Q8WUI4); test: HDAC biochemical activity measurement (fluorescent substrate deacetylation);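 as to all read-outs here: fluorogenic deacetylation assay using acetyl-lysine substrate at 20 µM, enzyme and compound incubated 30 min at 37 °C, then developer added, fluorescence read at 360/460 nm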; conditions: for IC50 HDAC7: 37° C. 30 minutes
T1 sequence (Q8WUI4 1-952): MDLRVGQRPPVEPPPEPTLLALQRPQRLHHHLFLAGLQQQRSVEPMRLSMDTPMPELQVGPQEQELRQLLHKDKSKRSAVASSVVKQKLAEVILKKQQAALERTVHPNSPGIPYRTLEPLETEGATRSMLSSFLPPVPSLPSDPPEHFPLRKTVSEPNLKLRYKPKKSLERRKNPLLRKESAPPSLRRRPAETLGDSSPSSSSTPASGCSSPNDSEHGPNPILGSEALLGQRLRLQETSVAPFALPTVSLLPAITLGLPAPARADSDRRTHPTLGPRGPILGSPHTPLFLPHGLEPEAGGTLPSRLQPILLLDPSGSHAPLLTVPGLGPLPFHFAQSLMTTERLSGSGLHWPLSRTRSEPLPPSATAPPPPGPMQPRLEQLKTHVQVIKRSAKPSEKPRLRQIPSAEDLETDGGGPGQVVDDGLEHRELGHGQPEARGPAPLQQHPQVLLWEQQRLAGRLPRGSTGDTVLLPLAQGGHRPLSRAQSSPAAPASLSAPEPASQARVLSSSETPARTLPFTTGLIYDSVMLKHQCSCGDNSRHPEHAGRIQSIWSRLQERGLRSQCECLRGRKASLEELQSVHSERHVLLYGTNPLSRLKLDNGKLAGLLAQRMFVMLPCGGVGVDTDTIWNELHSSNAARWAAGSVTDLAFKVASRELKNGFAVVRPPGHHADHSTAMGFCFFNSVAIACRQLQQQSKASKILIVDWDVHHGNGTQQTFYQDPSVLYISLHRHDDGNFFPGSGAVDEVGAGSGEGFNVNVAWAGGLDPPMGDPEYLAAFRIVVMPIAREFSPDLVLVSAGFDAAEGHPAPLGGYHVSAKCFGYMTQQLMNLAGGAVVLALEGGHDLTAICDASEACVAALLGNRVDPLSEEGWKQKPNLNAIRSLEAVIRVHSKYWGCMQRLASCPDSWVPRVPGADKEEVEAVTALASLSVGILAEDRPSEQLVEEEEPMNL

Structure (SMILES): C/C=C1\NC(=O)c2nccc(n2)CNC(=O)C[C@@H](/C=C/CCS)OC(=O)[C@H](C)NC1=O [Compound 144]
- GI50 [1]: 60 nM
- GI50 [2]: 127 nM
- GI50 [3]: 11 nM
- GI50 [4]: 70 nM
- GI50 [5]: 60 nM
- GI50 [6]: 38 nM
- GI50 [7]: 12 nM
- GI50 [8]: 41 nM
- GI50 [9]: 70 nM
- GI50 [10]: 70 nM
- GI50 [11]: 50 nM
- GI50 [12]: 11 nM
- GI50 [13]: 70 nM
- GI50 [14]: 35 nM
- GI50 [15]: 50 nM
- GI50 [16]: 70 nM
- GI50 [17]: 29 nM
- GI50 [18]: 70 nM
- GI50 [19]: 37 nM
- GI50 [20]: 23 nM
- IC50 HDAC7 (HDAC7): no activity

Structure (SMILES): C/C=C1\NC(=O)c2nc(ccc2SC)CNC(=O)C[C@@H](/C=C/CCSC(C)=O)OC(=O)[C@@H](C)NC1=O [Compound 220]
- GI50 ([1]; DU145 cells): 30 nM
- GI50 [2]: 33 nM
- GI50 [3]: 83 nM
- GI50 ([4]; A549 cells): 40 nM
- GI50 ([5]; MCF-7 cells): 20 nM
- GI50 [6]: 57 nM
- GI50 [7]: 26 nM
- GI50 [8]: 28 nM
- GI50 ([9]; PANC-1 cells): 30 nM
- GI50 ([10]; U937 cells): 80 nM
- GI50 ([11]; lncap cells): 60 nM
- GI50 [12]: 83 nM
- GI50 ([13]; HT1080 cells): 80 nM
- GI50 [14]: 55 nM
- GI50 ([15]; Hela cells): 30 nM
- GI50 ([16]; MOLT-4 cells): 50 nM
- GI50 [17]: 46 nM
- GI50 ([18]; BGC-823 cells): 30 nM
- GI50 [19]: 45 nM
- GI50 [20]: 53 nM
- IC50 HDAC7 (HDAC7): no activity

Structure (SMILES): C/C=C1\NC(=O)c2cc(SC)cc(n2)CNC(=O)C[C@@H](/C=C/CCSC(=O)CCCCCCC)OC(=O)[C@H](C)NC1=O [Compound 181]
- GI50 ([1]; DU145 cells): 60 nM
- GI50 [2]: 33 nM
- GI50 [3]: 15 nM
- GI50 ([4]; A549 cells): 50 nM
- GI50 ([5]; MCF-7 cells): 70 nM
- GI50 [6]: 35 nM
- GI50 [7]: 41 nM
- GI50 [8]: 28 nM
- GI50 ([9]; PANC-1 cells): 40 nM
- GI50 ([10]; U937 cells): 20 nM
- GI50 ([11]; lncap cells): 80 nM
- GI50 [12]: 23 nM
- GI50 ([13]; HT1080 cells): 60 nM
- GI50 [14]: 38 nM
- GI50 ([15]; Hela cells): 70 nM
- GI50 ([16]; MOLT-4 cells): 80 nM
- GI50 [17]: 36 nM
- GI50 ([18]; BGC-823 cells): 30 nM
- GI50 [19]: 18 nM
- GI50 [20]: 37 nM
- IC50 HDAC7 (HDAC7): no activity

Structure (SMILES): C/C=C1\NC(=O)c2cc(SCC)cc(n2)CNC(=O)C[C@@H](/C=C/CCSC(=O)CCCCCCC)OC(=O)[C@H](C(C)C)NC1=O [Compound 248]
- GI50 ([1]; DU145 cells): 30 nM
- GI50 [2]: 72 nM
- GI50 [3]: 23 nM
- GI50 ([4]; A549 cells): 30 nM
- GI50 ([5]; MCF-7 cells): 30 nM
- GI50 [6]: 65 nM
- GI50 [7]: 93 nM
- GI50 [8]: 26 nM
- GI50 ([9]; PANC-1 cells): 20 nM
- GI50 ([10]; U937 cells): 80 nM
- GI50 ([11]; lncap cells): 30 nM
- GI50 [12]: 48 nM
- GI50 ([13]; HT1080 cells): 50 nM
- GI50 [14]: 29 nM
- GI50 ([15]; Hela cells): 60 nM
- GI50 ([16]; MOLT-4 cells): 30 nM
- GI50 [17]: 83 nM
- GI50 ([18]; BGC-823 cells): 60 nM
- GI50 [19]: 45 nM
- GI50 [20]: 33 nM
- IC50 (μM) HDAC7 (HDAC7): no activity
